According to patent US11707440B2 (priority 2017, dated 2023):

Tests used:
[1] = system: subjects with MDD at imminent risk for suicide; experiment: Beck Hopelessness Scale (BHS), […]2001; assay type: in vivo, human; conditions: for BHS total score change, Diff. of LS Means (SE) minus placebo: ANCOVA LOCF
Source text: The BHS is a self-reported measure to assess one's level of negative expectations or pessimism regarding the future. It consists of 20 true-false items that examine the respondent's attitude over the past week by either endorsing a pessimistic statement or denying an optimistic statement. For every statement, each response is assigned a score of 0 or 1. The total BHS score is a sum of item responses and ranges from 0 to 20, with a higher score representing a higher level of hopelessness.

adult subjects with TRD [2] = assay type: in vivo, human
Description: Blood pressure and pulse/heart rate measurements were assessed supine with a completely automated device. Manual techniques were used only if an automated device is not available. Blood pressure and pulse/heart rate measurements were preceded by at least 5 minutes of rest in a quiet setting without distractions (e.g., television, cell phones).
Transient blood pressure increases peaked for the esketamine group at approximately 40 minutes post dose and returned to normal range at 90 minutes. […] The maximum mean increase (across all dosing days) in diastolic BP were 8.1 in the esketamine group and 4.5 in the active comparator group. FIGS. 7 and 8 present the means for measured blood pressure over time by treatment group in the double-blind phase.

[3] = system: elderly subjects with TRD; assay type: in vivo, human; conditions: each dosing day
Source text: The Modified Observer's Assessment of Alertness/Sedation (MOAA/S) was used to measure treatment-emergent sedation with correlation to levels of sedation defined by the American Society of Anesthesiologists (ASA) continuum. The MOAA/S scores range from 0 (No response to painful stimulus; corresponds to ASA continuum for general anesthesia) to 5 (Readily responds to name spoken in normal tone [awake]; corresponds to ASA continuum for minimal sedation). The proportion of subjects with sedation was <4% for the esketamine group for each dosing day.

subjects with TRD [4] = conditions: human, in vivo, other: intranasal
Description: FIGS. 53 and 54 present means for blood pressure over time by treatment group in the maintenance phase.
Transient blood pressure increases peaked for the esketamine group at approximately 40 minutes post dose and returned closer to predose levels by 1.5 hours post dose.

subjects with TRD [5] = system: subjects with TRD; set-up: species or system human; conditions: in vivo
Source text: Subjects with and without hypertension experienced similar magnitude of mean increases of SBP and DBP.
The maximum mean increases (across all dosing days within the respective phase) in diastolic BP were 5.6 and 5.2 in the IND and OP/MA phases, respectively.

[6] = system: female Sprague-Dawley rats, PCG/RSC of the brain; experiment: Single dose neurotoxicity study, intranasal instillation; conditions: single dose, 72 mg
Description: Esketamine HCl was instilled intranasally at doses of 0 (vehicle), 36, 54 or 72 mg (expressed as esketamine base) to female rats on a single day. The dose levels were obtained by 2, 3 or 4 subsequent intranasal instillations, respectively, into both nostrils at a volume of 50 μL per nostril. At each instillation, the second nostril was dosed immediately after the first nostril. The interval between subsequent instillations into both nostrils was 5 minutes.
The vehicle control group received 4 subsequent intranasal instillations of the vehicle into both nostrils (50 μL per nostril) with 5-minute intervals.
The injection volume was 5 mL/kg.
The vehicle- and the 36 and 54 mg-dosed groups consisted of 24 animals per group, while the 72 mg-dosed and positive control groups involved 30 animals per group. Four satellite animals were added to the esketamine HCl-dosed groups of main study animals for toxicokinetic (TK) purposes. In these animals the plasma exposure to esketamine was measured on the day of dosing at various time points up to and including 24 hours after the first instillation.
Prior to the perfusion, rats were anesthetized with isoflurane. After injection of 0.1 ml heparin, the blood of the rat was flushed out with a physiological saline solution by intraarterial insertion of a needle in the abdominal aorta. Thereafter the rat was perfused with glutaraldehyde 3% in potassium phosphate 0.09M and 1.4% sucrose. Due to logistic constraints at maximum 30 animals could undergo the whole-body perfusion procedure on a given day. Therefore, a staggered start of treatment was applied to all 5 groups of main study animals. Consequently, subgroups of 4 main study animals of the vehicle- and 36 and 54 mg-dosed groups, and 5 main study animals of the 72 mg-dosed and positive control groups, were dosed on 6 consecutive days, respectively.
The vehicle control, positive control, and esketamine HCl-dosed animals were sacrificed at either 48 hours (i.e., the first 12 or 15 rats per group) or 96 hours after the dose administration time (i.e., the last 12 or 15 rats per group). The brain tissue of the vehicle control-, positive control- and esketamine HCl-treated rats were processed at the same time and handled in the same way in batches of 4 or 5 animals per group.
Furthermore, clinical observations were recorded for the esketamine HCl-dosed rats on the day of dosing at 0 till 5 minutes, 15 and 30 minutes, and at 1, 2, 4, 6 hours post-dose, at the end of the working day and at 24 hours after the last instillation in the single dose study and on the first day of dosing, after one week and towards the end of the dosing period in the repeated dose study. Body weight and body weight gain were measured daily. Food consumption was measured weekly in the repeated dose study.
On the day of terminal kill, a complete physical examination was performed on the rats in fasted condition and body weight was recorded. The surviving animals were anaesthetized by inhalation of an isoflurane (IsoFlo® Zoetis, Belgium)/oxygen mixture and killed by exsanguination via the carotid artery. […] All terminally killed rats or those killed pre-terminally were perfused with 4% paraformaldehyde in the single dose study and with glutaraldehyde 3% in potassium phosphate buffer 0.09 M with 1.4% sucrose in the repeated dose study.
Brain tissue was sampled and processed routinely. The trimmed and embedded tissue was sectioned and stained with hematoxylin-eosin (HE). Histoprocessing and staining were carried out in three batches of 4 animals per group (each batch thus containing 4 animals from vehicle control-, positive control- and the three esketamine HCl-treated groups). In the single dose study duplicate brain sections were stained with Fluoro-Jade (FJ).
All tissues showing gross abnormalities were examined macroscopically.

adult subjects with TRD [7] = conditions: US patients
Source text: Adverse events were reported by the subject (or, when appropriate, by a caregiver, surrogate, or the subject's legally acceptable representative) for the duration of the study. Adverse events were followed by the investigator. TEAEs of special interest were examined separately.
The verbatim terms used in the eCRF by investigators to identify adverse events were coded using the MedDRA. All reported adverse events with onset during the double-blind induction phase (i.e., TEAEs, and adverse events that have worsened since baseline) were included in the analysis. For each adverse event, the percentage of subjects who experience at least 1 occurrence of the given event was summarized by treatment group. Adverse events occurring during the follow-up phase were summarized separately.
TEAEs of special interest were examined separately. AEs of special interest were listed in the SAP. Subjects who died, who discontinued treatment due to an adverse event, or who experienced a severe or a serious adverse event were summarized separately.
An adverse event is any untoward medical occurrence in a clinical study subject administered a medicinal (investigational or non-investigational) product. […]

[8] = system: subjects with MDD at imminent risk for suicide; conditions: esketamine 84 mg
Description: The CADSS was measured prior to the start of each dose, at 40 minutes. 2 hours, and 4 hours postdose.

[9] = Day 1(DB): 4H, LOCF, ITT analysis set
[10] = End Point(DB), LOCF, ITT analysis set
[11] = human, in vivo, other: intranasal

CN[C@]1(c2ccccc2Cl)CCCCC1=O [Esketamine 84 mg]
BHS total score, Median (Range) ([1]; Baseline(DB), predose Day 1, ITT analysis set): 17.0 (9; 20) | BHS total score change, Diff. of LS Means (SE) minus placebo ([1]; Day 1(DB): 4H): −1.5 (1.47) | BHS total score change from baseline, Mean (SD) [1, 9]: −4.1 (5.63) | BHS total score change from baseline, Median (Range) [1, 9]: −2.0 (−16; 2) | BHS total score, Median (Range) [1, 9]: 14.0 (0; 20) | BHS total score change, Diff. of LS Means (SE) minus placebo ([1]; End Point(DB)): −2.3 (1.66) | BHS total score change from baseline, Mean (SD) [1, 10]: −10.3 (5.51) | BHS total score change from baseline, Median (Range) [1, 10]: −11.0 (−19; 0) | BHS total score, Mean (SD) [1, 10]: 6.2 (5.96) | BHS total score, Median (Range) [1, 10]: 4.0 (0; 20)

CN[C@]1(c2ccccc2Cl)CCCCC1=O [esketamine, (S)-2-(2-chlorophenyl)-2-(methylamino)cyclohexanone]
Maximum mean increase in diastolic BP (across all dosing days) (adult subjects with TRD [2]; double-blind phase): 8.1 | Time of peak of transient blood pressure increases (adult subjects with TRD [2]; [11]): approximately 40 minutes post dose | Time of return of blood pressure to normal range (adult subjects with TRD [2]; [11]): 90 min | Proportion of subjects with sedation (post dose MOAA/S score of ≤3) [3]: < 4% | Time of peak of transient blood pressure increases (subjects with TRD [4]): approximately 40 minutes post dose | Time of return of blood pressure closer to predose levels (subjects with TRD [4]): ≤ 1.5 hours post dose | Subjects who discontinued intranasal esketamine due to increased blood pressure (subjects with TRD [5]): Six | AUC-based safety margin compared with the maximum 84 mg clinical dose [6]: ~86 fold | Cmax-based safety margin compared with the maximum 84 mg clinical dose [6]: approximately 60 fold | Patients who withdrew from nasal spray drug (adult subjects with TRD [7]): 3 patients | Time to resolution of dissociative symptoms (CADSS) [8]: ≤ 2 h
